# Where two headings read alike, the source gives them in different places.
# Legend:
# [1] = Metabolic stability using Human Liver Microsomes (HLM); assay type: in vitro ADME; details: pooled human liver microsomes, compound 1 μM, 0.3 mg/ml microsomal protein, 1 mM NADPH
# Protocol: Stability Protocol: Metabolic Stability Using Rat Liver Microsomes (RLM) and Human Liver Microsomes (HLM).
# This assay was performed using pooled male rat liver microsomes (In-house prepared as per SOP), Pooled Human liver microsomes (XENOTECH; Batch No— H0630-1110189)). The 100 μl reaction contains the compounds at 1 μM, 0.3 mg/ml microsomal protein and both the co-factors (1 mM NADPH) in buffer and the mixture was incubated at different time points (0, 15, 30, 45, 60, & 90 minutes). The reaction was stopped by the addition of equal volume of acetonitrile containing internal standard (Telmesartin). The precipitated protein was removed by centrifugation and the supernatant were analyzed LC/MS-MS method. The percent parent compound remaining was quantified by analysis using following formula (% parent compound remaining=(peak area at Time x/peak area at T0)×100. The intrinsic clearance was calculated using the following formula. CLint,app: (0.693/in vitro t½)(incubation volume/mg of microsomal protein)(45 mg microsomal protein/gram of liver)(20^a g of liver/kg body weight) • a: 20 and 45 g of liver/kg of body weight were used for human and rat, respectively (Lu C et al., DMD, 2006). Bio-analysis: It was performed in Multiple Reaction Monitoring mode (negative mode) using Applied Biosystems API 4000 coupled to Agilent Technologies 1100 series HPLC on a reverse phase column (Zorbax Eclipse XDB C18, 50×4.6 mm, 5 μm). Celecoxib was used as internal standard both in in-vitro and in-vivo experiments. Mobile phase used 0.05% […] water and acetonitrile (10:90) with a flow rate of 0.6 ml/minute. The injection volume was kept as 10 μl.
# TrkA kinase = biological target: T1, TrkA kinase (Homo sapiens, UniProt P04629); experiment: In vitro TrkA inhibitory activity using TR-FRET assay; assay type: biochemical; details: 5 ng TrkA, 500 μM ATP
# T1 construct: purchased Upstate, USA
# Protocol: Determination of In Vitro TrkA Inhibitory Activity Using TR-FRET Assay
# Compounds were screened in the TR-FRET assay with TrkA kinase. 5 ng of TrkA [Upstate, USA] kinase was used for assay. The compound was incubated with the kinase for 30 minutes at 20-35° C. After the incubation, substrate mix [40 nM Ultra light poly GT (Perkin Elmer, USA) and 500 μM ATP] was added. The above reaction was stopped by the addition of 40 mM EDTA after 30 minutes. The Eu-labelled antiphospho-tyrosine antibody [Perkin Elmer, USA] was added at 0.5 nM and the fluorescence emission at 615 nm/665 nm [excitation at 340 nm] was measured. The compounds were initially screened at 100 nM, 1 μM and 10 μM concentrations. The potent compounds with >25% inhibition at 1 μM of TrkA were taken for the full dose response studies. The final DMSO concentration in the assay was […]. For IC50 determination, ⅓^rd serial dilution was made from the 20 mM DMSO stock solution. 2 μl of these were transferred to the test wells containing 20 μl reaction mixture [Total reaction volume 22 μl]. The fluorescence was measured in Perkin Elmer Wallac 1420 Multilabel Counter Victor 3. The IC50 was determined by fitting the dose response data to a sigmoidal curve fitting equation using GraphPad Prism software version 5.
# [2] = both bounds given in nm, read-out: TrkA inhibitory activity in-vitro IC50
# [3] = lower bound in nm [sic], upper bound in μM, read-out: TrkA inhibitory activity in-vitro IC50
# [4] = read-out: TrkA inhibition in-vitro IC50
# T1 sequence (P04629 33-796): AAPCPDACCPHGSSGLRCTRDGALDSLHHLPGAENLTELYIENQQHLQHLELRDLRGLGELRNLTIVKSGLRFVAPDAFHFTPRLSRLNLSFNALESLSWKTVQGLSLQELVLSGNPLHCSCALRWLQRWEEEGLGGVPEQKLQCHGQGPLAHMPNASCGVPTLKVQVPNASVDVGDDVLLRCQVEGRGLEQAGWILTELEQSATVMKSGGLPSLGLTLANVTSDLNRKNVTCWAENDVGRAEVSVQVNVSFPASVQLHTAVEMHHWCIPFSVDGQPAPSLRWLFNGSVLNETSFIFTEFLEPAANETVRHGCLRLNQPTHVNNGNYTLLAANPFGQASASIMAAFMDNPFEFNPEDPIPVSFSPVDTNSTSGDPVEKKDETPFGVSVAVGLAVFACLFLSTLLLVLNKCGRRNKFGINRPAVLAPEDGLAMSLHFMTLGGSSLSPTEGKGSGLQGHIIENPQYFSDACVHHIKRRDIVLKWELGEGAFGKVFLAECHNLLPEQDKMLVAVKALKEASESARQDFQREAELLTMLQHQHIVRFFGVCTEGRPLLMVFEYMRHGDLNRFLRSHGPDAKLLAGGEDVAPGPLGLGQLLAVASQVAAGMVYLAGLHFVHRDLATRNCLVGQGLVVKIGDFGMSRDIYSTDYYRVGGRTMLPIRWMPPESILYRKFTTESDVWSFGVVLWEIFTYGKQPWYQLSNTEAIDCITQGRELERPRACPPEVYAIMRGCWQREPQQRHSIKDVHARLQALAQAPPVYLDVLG
smiles,measurement,setting,value
"NS(=O)(=O)NC(=O)c1cnn2ccc(N3C[C@@H](F)C[C@@H]3c3cccc(F)c3)c(F)c12 [Example 107, 4-fluoro-5-((2R,4S)-4-fluoro-2-(3-fluorophenyl)pyrrolidin-1-yl)-N-sulfamoylpyrazolo[1,5-a]pyridine-3-carboxamide]",half-life at 1 μM,[1],> 1.33 h
"CC(C)S(=O)(=O)NC(=O)c1cnn2ccc(N3C[C@@H](F)C[C@@H]3c3cccc(F)c3)c(F)c12 [Example 122, 4-fluoro-5-((2R,4S)-4-fluoro-2-(3-fluorophenyl)pyrrolidin-1-yl)-N-(isopropylsulfonyl) pyrazolo[1,5-a]pyridine-3-carboxamide]",half-life at 1 μM,[1],> 1.33 h
"CCN(C)S(=O)(=O)NC(=O)c1cnn2ccc(N3C[C@@H](F)C[C@@H]3c3cccc(F)c3)c(F)c12 [Example 102, N-(N-ethyl-N-methylsulfamoyl)-4-fluoro-5-((2R,4S)-4-fluoro-2-(3-fluorophenyl)pyrrolidin-1-yl)pyrazolo[1,5-a]pyridine-3-carboxamide]",half-life at 1 μM,[1],> 1.33 h
"CCN(C)S(=O)(=O)NC(=O)c1cnn2ccc(N3CCC[C@@H]3c3cc(F)cc(O[C@@H]4CCOC4)c3)cc12 [Example 106, N-(N-ethyl-N-methylsulfamoyl)-5-((R)-2-(3-fluoro-5-(((R)-tetrahydrofuran-3-yl)oxy)phenyl)pyrrolidin-1-yl)pyrazolo[1,5-a]pyridine-3-carboxamide]",half-life at 1 μM,[1],> 1.33 h
"CC(C)(C)S(=O)(=O)NC(=O)c1cnn2ccc(N3C[C@@H](F)C[C@@H]3c3cccc(F)c3)c(F)c12 [Example 121, N-(tert-butylsulfonyl)-4-fluoro-5-((2R,4S)-4-fluoro-2-(3-fluorophenyl)pyrrolidin-1-yl)pyrazolo[1,5-a]pyridine-3-carboxamide]",half-life at 1 μM,[1],> 1.33 h
"CCN(C)S(=O)(=O)NC(=O)c1cnn2ccc(N3CCCC3c3cc(F)cc4c3OCCCO4)cc12 (single isomer, unassigned) [Example 96, N-(N-ethyl-N-methylsulfamoyl)-5-(2-(8-fluoro-3,4-dihydro-2H-benzo[b][1,4]dioxepin-6-yl)pyrrolidin-1-yl)pyrazolo[1,5-a]pyridine-3-carboxamide]",half-life at 1 μM,[1],> 1.33 h
"COc1ccc(F)cc1[C@H]1CCCN1c1ccn2ncc(C(=O)NS(=O)(=O)C(C)(C)C)c2c1 [Example 42, (R)-N-(tert-butylsulfonyl)-5-(2-(5-fluoro-2-methoxyphenyl)pyrrolidin-1-yl)pyrazolo[1,5-a] pyridine-3-carboxamide]",half-life at 1 μM,[1],> 1.33 h
"Cn1nccc1S(=O)(=O)NC(=O)c1cnn2ccc(N3CCC[C@@H]3c3cc(F)ccc3F)cc12 [Example 19, (R)-5-(2-(2,5-difluorophenyl)pyrrolidin-1-yl)-N-((1-methyl-1H-pyrazol-5-yl)sulfonyl) pyrazolo[1,5-a]pyridine-3-carboxamide]",IC50,TrkA kinase; [2],0.1 to 0.5 µM
"CC(C)(C)S(=O)(=O)NC(=O)c1cnn2ccc(N3CCC[C@@H]3c3cc(F)ccc3OC3CCOCC3)cc12 [Example 124, (R)-N-(tert-butylsulfonyl)-5-(2-(5-fluoro-2-((tetrahydro-2H-pyran-4-yl)oxy)phenyl)pyrrolidin-1-yl)pyrazolo[1,5-a]pyridine-3-carboxamide]",half-life at 1 μM,[1],> 1.33 h
"CN1C(=O)Cc2cc(S(=O)(=O)NC(=O)c3cnn4ccc(N5CCC[C@@H]5c5cc(F)ccc5F)cc34)ccc21 [Example 21, (R)-5-(2-(2,5-difluorophenyl)pyrrolidin-1-yl)-N-((1-methyl-2-oxoindolin-5-yl)sulfonyl) pyrazolo[1,5-a]pyridine-3-carboxamide]",IC50,TrkA kinase; [3],0.5 to 1 µM
"O=C(NS(=O)(=O)C1CC1)c1cnn2ccc(N3CCC[C@@H]3c3cc(F)ccc3F)cc12 [Example 5, (R)-N-(cyclopropylsulfonyl)-5-(2-(2,5-difluorophenyl)pyrrolidin-1-yl)pyrazolo[1,5-a]pyridine-3-carboxamide]",IC50,TrkA kinase; [2],0.1 to 0.5 µM
"CC(C)(C)S(=O)(=O)NC(=O)c1cnn2ccc(N3CC(F)(F)CC3c3cc(F)ccc3F)cc12 (single isomer, unassigned) [Example 56]",IC50,TrkA kinase; [2],0.1 to 0.5 µM
"CC1(S(=O)(=O)NC(=O)c2cnn3ccc(N4CCC[C@@H]4c4cc(F)ccc4F)cc23)CC1 [Example 134, Sodium (R)-(5-(2-(2,5-difluorophenyl)pyrrolidin-1-yl)pyrazolo[1,5-a]pyridine-3-carbonyl)((1-methylcyclopropyl)sulfonyl)amide]",IC50,TrkA kinase; [4],0.05 to 0.1 µM
"CC(C)(C)S(=O)(=O)NC(=O)c1cnn2ccc(N3CCC[C@@H]3c3cc(F)ccc3OC(F)F)cc12 [Example 63, (R)-N-(tert-butylsulfonyl)-5-(2-(2-(difluoromethoxy)-5-fluorophenyl)pyrrolidin-1-yl) pyrazolo[1,5-a]pyridine-3-carboxamide]",IC50,TrkA kinase; [4],0.05 to 0.1 µM
"Cn1cnc(S(=O)(=O)NC(=O)c2cnn3ccc(N4CCC[C@@H]4c4cc(F)ccc4F)cc23)c1 [Example 18, (R)-5-(2-(2,5-difluorophenyl)pyrrolidin-1-yl)-N-((1-methyl-1H-imidazol-4-yl)sulfonyl) pyrazolo[1,5-a]pyridine-3-carboxamide]",IC50,TrkA kinase; read-out: TrkA inhibitory activity in-vitro IC50,1 to 10 µM
"CC(C)(C)S(=O)(=O)NC(=O)c1cnn2ccc(N3CC(F)(F)CC3c3cc(F)ccc3F)cc12 (stereo not drawn) [Example 133, Sodium (tert-butylsulfonyl)(5-(2-(2,5-difluorophenyl)-4,4-difluoropyrrolidin-1-yl)pyrazolo[1,5-a]pyridine-3-carbonyl)amide]",IC50,TrkA kinase; [2],0.1 to 0.5 µM
"CCC1(S(=O)(=O)NC(=O)c2cnn3ccc(N4CCC[C@@H]4c4cc(F)ccc4F)cc23)CC1 [Example 36, (R)-5-(2-(2,5-difluorophenyl)pyrrolidin-1-yl)-N-((1-ethylcyclopropyl)sulfonyl) pyrazolo[1,5-a]pyridine-3-carboxamide]",IC50,TrkA kinase; [2],0.1 to 0.5 µM
"CC(C)(C)S(=O)(=O)NC(=O)c1cnn2ccc(N3C[C@H](O)C[C@@H]3c3cc(F)ccc3F)cc12 [Example 48, N-(tert-butylsulfonyl)-5-((2R,4R)-2-(2,5-difluorophenyl)-4-hydroxypyrrolidin-1-yl)pyrazolol[1,5-a]pyridine-3-carboxamide]",IC50,TrkA kinase; [3],0.5 to 1 µM
"CC(C)S(=O)(=O)NC(=O)c1cnn2ccc(N3CCC[C@@H]3c3cc(F)ccc3F)cc12 [Example 7, (R)-5-(2-(2,5-difluorophenyl)pyrrolidin-1-yl)-N-(isopropylsulfonyl)pyrazolo[1,5-a] pyridine-3-carboxamide]",IC50,TrkA kinase; [4],≤ 0.05 µM
"CCN(CC)S(=O)(=O)NC(=O)c1cnn2ccc(N3CCC[C@@H]3c3cc(F)ccc3F)cc12 [Example 81, (R)-N-(N,N-diethylsulfamoyl)-5-(2-(2,5-difluorophenyl)pyrrolidin-1-yl)pyrazolo[1,5-a]pyridine-3-carboxamide]",IC50,TrkA kinase; [4],≤ 0.05 µM
"O=C(NS(=O)(=O)C1CCOCC1)c1cnn2ccc(N3CCC[C@@H]3c3cc(F)ccc3F)cc12 [Example 22, (R)-5-(2-(2,5-difluorophenyl)pyrrolidin-1-yl)-N-((tetrahydro-2H-pyran-4-yl)sulfonyl) pyrazolo[1,5-a]pyridine-3-carboxamide]",IC50,TrkA kinase; [2],0.1 to 0.5 µM
"CN1CCN(S(=O)(=O)NC(=O)c2cnn3ccc(N4CCC[C@@H]4c4cc(F)ccc4F)cc23)CC1 [Example 86, (R)-5-(2-(2,5-difluorophenyl)pyrrolidin-1-yl)-N-((4-methylpiperazin-1-yl)sulfonyl)pyrazolo[1,5-a]pyridine-3-carboxamide]",IC50,TrkA kinase; [2],0.1 to 0.5 µM
"O=C(NS(=O)(=O)N1CCOCC1)c1cnn2ccc(N3CCC[C@@H]3c3cc(F)ccc3F)cc12 [Example 84, (R)-5-(2-(2,5-difluorophenyl)pyrrolidin-1-yl)-N-(morpholinosulfonyl) pyrazolo[1,5-a]pyridine-3-carboxamide]",IC50,TrkA kinase; [4],≤ 0.05 µM
"O=C(NS(=O)(=O)C1(Cc2ccc(F)cc2)CC1)c1cnn2ccc(N3CCC[C@@H]3c3cc(F)ccc3F)cc12 [Example 41, (R)-5-(2-(2,5-difluorophenyl)pyrrolidin-1-yl)-N-((1-(4-fluorobenzyl)cyclopropyl)sulfonyl) pyrazolo[1,5-a]pyridine-3-carboxamide]",IC50,TrkA kinase; [4],≤ 0.05 µM

# From US10047087B2, “Substituted pyrazolo[1,5-A] pyridine as tropomyosin receptor kinase (TrK) inhibitors” (Dr. Reddy's Laboratories Ltd., priority 2011, dated 2018)
